Measurements as given in patent US20240310368A1, “DETECTION KIT FOR CATECHOLAMINES AND METABOLITES THEREOF IN PLASMA/URINE AND DETECTION METHOD THEREOF” (Calibra Scientific, Inc., priority 2023, published 2024).
Where “and” joins values, the source holds several entries; their conditions need not be identical. Identical values can stand only once.

How the values were obtained:
[1] = Acceleration test of plasma samples with stabilizers (30° C. for 1.5 days, against control plasma stored at −95° C. to −65° C.), LC-MS/MS Area/IS Area
Description: Samples were collected in EDTA-anticoagulant blood collection tubes and then rapidly subjected to […] centrifugation at 2-8° C. to separate plasma. 0.95 mL of the plasma was transferred into centrifuge tubes. After 50 μL of the stabilizer was added for uniform mixing, the plasma samples were stored by refrigeration or freezing.
• (1) 500 μL of plasma/urine samples to be tested were taken, and 50 μL of the internal standard solution and 500 μL of the buffer solution were sequentially added for vertex mixing to obtain diluted samples. • (2) The magnetic medium composite material suspension was subjected to full vortex treatment to reach a suspension state, and then subsequent operation was performed. • (3) Different reagents were added into wells of a preprocessing plate according to the follow operation: adding 200 μL of the magnetic medium composite material suspension in column 1, adding 500 μL of the balance solution in column 2, adding 850 μL of the diluted samples in column 3, adding 500 μL of the balance solution in column 4, adding 200 μL of a rinsing solution in column 5, and adding 100 μL of the elution solution in column 6. • (4) An extraction operation procedure was carried out, as shown in Table 5.
Each group of the plasma samples were stored at 30° C. for 1.5 days, and plasma without addition of any compounds stored at −95° C. to −65° C. was used as a control. […] The stabilizing effect of the single-component stabilizers on the plasma samples was investigated.
The stabilizers were mixed with plasma (the volume ratio of the stabilizers to plasma samples was 1:19), and high concentration plasma samples and low concentration plasma samples were prepared by the method provided in Example 1.
With plasma stored at −95° C. to −65° C. as a control, the above plasma samples were separately stored at 30° C. for 1.5 days to investigate the stability. […]

[2] = Stabilizing effect of accelerated stabilizers (37° C., 14 days) on standard products and quality control products then accelerated at 30° C. for 2 days; type: physicochemical; details: for Relative deviation %: 2 days at 30° C. vs Control; for concentration in standard products and quality control products, 2 days at 30° C. / concentration in standard products and quality control products, Control: single replicates
Description: Standard products of epinephrine, norepinephrine, dopamine, metanephrine, normetanephrine and 3-methoxytyramine were prepared into mixed solutions, and blank plasma containing a stabilizer was used as a matrix to prepare standard products and quality control products.
(§1) In the present example, the stabilizing effect of the stabilizers on plasma samples, standard products and quality control products after acceleration was further verified. The stabilizers were accelerated at 37° C. for 14 days (equivalent to 1 year at 2-8° C.), added into the plasma samples in proportions and then accelerated at 30° C. for 1.5 days (equivalent to 12 months at −30° C. to −15° C.). The stabilizers were accelerated at 37° C. for 14 days (equivalent to 1 year at 2-8° C.), added into the standard products and the quality control products in proportions and then accelerated at 30° C. for 2 days (equivalent to 18 months at −30° C. to −15° C.).

[3] = Stabilizing effect of accelerated stabilizers (37° C., 14 days) on plasma samples then accelerated at 30° C. for 1.5 days; type: physicochemical, human; details: for Relative deviation %: Accelerate vs Control; for concentration in plasma samples, Control / concentration in plasma samples, Accelerate: single replicates; for concentration in plasma samples, Accelerate: stabilizer accelerated 37° C. 14 days, plasma then accelerated at 30° C. for 1.5 days
Description: as §1

[4] = samples at a high concentration level
[5] = samples at a low concentration level

SMILES	Relative deviation % ([2]; High concentration level)	average concentration, 2 days at 30° C. ([2]; High concentration level)	concentration in standard products and quality control products, 2 days at 30° C. ([2]; High concentration level)	average concentration, Control ([2]; High concentration level)	concentration in standard products and quality control products, Control ([2]; High concentration level)	Relative deviation % ([2]; Low concentration level)	average concentration, 2 days at 30° C. ([2]; Low concentration level)	concentration in standard products and quality control products, 2 days at 30° C. ([2]; Low concentration level)	average concentration, Control ([2]; Low concentration level)	concentration in standard products and quality control products, Control ([2]; Low concentration level)	Relative deviation % ([2]; Medium concentration level)	average concentration, 2 days at 30° C. ([2]; Medium concentration level)	concentration in standard products and quality control products, 2 days at 30° C. ([2]; Medium concentration level)	average concentration, Control ([2]; Medium concentration level)	concentration in standard products and quality control products, Control ([2]; Medium concentration level)	Relative deviation % [3, 4]	concentration in plasma samples, Control [3, 4]	concentration in plasma samples, Accelerate [3, 4]	Relative deviation % [3, 5]	concentration in plasma samples, Control [3, 5]	also measured
O=C(O)CC(O)(CC(=O)O)C(=O)O [citric acid]	–	–	–	–	–	–	–	–	–	–	–	–	–	–	–	–	–	–	–	–	Ratio (Area/IS Area) E ([1]; plasma at a high concentration level, plasma containing 500 μg/mL of the component, control plasma 0.624): 0; Ratio (Area/IS Area) NE ([1]; plasma at a high concentration level, plasma containing 500 μg/mL of the component, control plasma 1.522): 0; Ratio (Area/IS Area) DA ([1]; plasma at a high concentration level, plasma containing 500 μg/mL of the component, control plasma 2.27): 0; Ratio (Area/IS Area) E ([1]; plasma at a high concentration level, plasma containing 2,000 μg/mL of the component, control plasma 0.624): 0; Ratio (Area/IS Area) NE ([1]; plasma at a high concentration level, plasma containing 2,000 μg/mL of the component, control plasma 1.522): 0; Ratio (Area/IS Area) DA ([1]; plasma at a high concentration level, plasma containing 2,000 μg/mL of the component, control plasma 2.27): 0; Ratio (Area/IS Area) E ([1]; plasma at a low concentration level, plasma containing 500 μg/mL of the component, control plasma 0.079): 0; Ratio (Area/IS Area) NE ([1]; plasma at a low concentration level, plasma containing 500 μg/mL of the component, control plasma 0.219): 0; Ratio (Area/IS Area) DA ([1]; plasma at a low concentration level, plasma containing 500 μg/mL of the component, control plasma 0.233): 0; Ratio (Area/IS Area) E ([1]; plasma at a low concentration level, plasma containing 2,000 μg/mL of the component, control plasma 0.079): 0; Ratio (Area/IS Area) NE ([1]; plasma at a low concentration level, plasma containing 2,000 μg/mL of the component, control plasma 0.219): 0; Ratio (Area/IS Area) DA ([1]; plasma at a low concentration level, plasma containing 2,000 μg/mL of the component, control plasma 0.233): 0
COc1cc(CCN)ccc1O [Group 3-MT]	−3.54%	1001.8 pg/mL	1.00258 ng/mL and 0.99459 ng/mL and 1.00823 ng/mL	1038.58 pg/mL	1.01486 ng/mL and 1.01865 ng/mL and 1.08223 ng/mL	−8.93%	10.93 pg/mL	0.01106 ng/mL and 0.01049 ng/mL and 0.01124 ng/mL	12 pg/mL	0.01245 ng/mL and 0.01066 ng/mL and 0.0129 ng/mL	−4.98%	182.01 pg/mL	0.16702 ng/mL and 0.19198 ng/mL and 0.18703 ng/mL	191.55 pg/mL	0.19324 ng/mL and 0.19663 ng/mL and 0.18479 ng/mL	−2.0%	0.38458 ng/mL and 0.38086 ng/mL and 0.37856 ng/mL	0.35799 ng/mL and 0.37926 ng/mL and 0.38345 ng/mL	0.6%	0.06389 ng/mL and 0.06483 ng/mL and 0.06347 ng/mL	concentration in plasma samples, Accelerate [3, 5]: 0.06307 ng/mL and 0.062 ng/mL and 0.06825 ng/mL
CNCC(O)c1ccc(O)c(OC)c1 (stereo not drawn) [MN]	0.61%	984.35 pg/mL	1.00342 ng/mL and 0.93428 ng/mL and 1.01536 ng/mL	978.42 pg/mL	1.00662 ng/mL and 0.97242 ng/mL and 0.9562 ng/mL	2.69%	12.16 pg/mL	0.01233 ng/mL and 0.01302 ng/mL and 0.01113 ng/mL	11.84 pg/mL	0.01265 ng/mL and 0.01291 ng/mL and 0.00997 ng/mL	−1.18%	198.93 pg/mL	0.20299 ng/mL and 0.20812 ng/mL and 0.18568 ng/mL	201.31 pg/mL	0.21281 ng/mL and 0.1969 ng/mL and 0.19422 ng/mL	−1.2%	0.41672 ng/mL and 0.40668 ng/mL and 0.40997 ng/mL	0.39738 ng/mL and 0.41965 ng/mL and 0.40205 ng/mL	1.9%	0.07592 ng/mL and 0.07977 ng/mL and 0.07321 ng/mL	concentration in plasma samples, Accelerate [3, 5]: 0.0778 ng/mL and 0.07674 ng/mL and 0.07872 ng/mL
O=S([O-])S(=O)(=O)[O-].[Na+].[Na+] [sodium pyrosulfite]	–	–	–	–	–	–	–	–	–	–	–	–	–	–	–	–	–	–	–	–	Ratio (Area/IS Area) E ([1]; plasma at a high concentration level, plasma containing 50 μg/mL of the component, control plasma 0.624): 0; Ratio (Area/IS Area) NE ([1]; plasma at a high concentration level, plasma containing 50 μg/mL of the component, control plasma 1.522): 0; Ratio (Area/IS Area) DA ([1]; plasma at a high concentration level, plasma containing 50 μg/mL of the component, control plasma 2.27): 0; Ratio (Area/IS Area) E ([1]; plasma at a high concentration level, plasma containing 200 μg/mL of the component, control plasma 0.624): 0; Ratio (Area/IS Area) NE ([1]; plasma at a high concentration level, plasma containing 200 μg/mL of the component, control plasma 1.522): 0; Ratio (Area/IS Area) DA ([1]; plasma at a high concentration level, plasma containing 200 μg/mL of the component, control plasma 2.27): 0; Ratio (Area/IS Area) E ([1]; plasma at a low concentration level, plasma containing 50 μg/mL of the component, control plasma 0.079): 0; Ratio (Area/IS Area) NE ([1]; plasma at a low concentration level, plasma containing 50 μg/mL of the component, control plasma 0.219): 0; Ratio (Area/IS Area) DA ([1]; plasma at a low concentration level, plasma containing 50 μg/mL of the component, control plasma 0.233): 0; Ratio (Area/IS Area) E ([1]; plasma at a low concentration level, plasma containing 200 μg/mL of the component, control plasma 0.079): 0; Ratio (Area/IS Area) NE ([1]; plasma at a low concentration level, plasma containing 200 μg/mL of the component, control plasma 0.219): 0; Ratio (Area/IS Area) DA ([1]; plasma at a low concentration level, plasma containing 200 μg/mL of the component, control plasma 0.233): 0
